Key:
[1] = system: HCT116 MTAP-deleted cells; test: Cell viability assay (CellTiter-Glo, 7 days), HCT116 MTAP-deleted; settings: Homo sapiens, HCT-116, 168 h
Description: Control compounds were analyzed in parallel each time for quality control.
In Brief, on Day −1, a serial dilution of stock compounds in DMSO was performed using BioMek liquid handlers and dispensed using Echo acoustic dispenser into 384 well plates. Both tool compounds and sample compounds were spotted in the same plate for a dose response of PRMT5 inhibitors. Compound plates were stored as frozen until the cells were ready for seeding.
On Day 0, 100 HCT WT or HCT116 MTAP-deleted cells were seeded in compound-containing 384 well plates (50 μl per well) in RPMI 1640 media supplemented with 10% heat inactivated fetal bovine serum, Glutamax and penicillin streptomycin using EL460 liquid dispenser 5 μl cassette (BioTek, part no. 7170011). After equilibrating the plate in room temperature, the cells were incubated for 7 days inside the sealed incubator set at 37 °C with 90% humidity and 5% CO2.
On Day 7, the viability of cells was measured using a CTG assay kit (CellTitre-Glo; Promega cat no. G7573). Shortly, 40 μl per well of luminescent cell viability assay reagent were dispensed using EL460 liquid dispenser 5 μl cassette. CTG luminescence signal was measured using an EnVision plate reader (PerkinElmer) in accordance with manufacturer's instruction. The CC50 values for each compound after 7 days of treatment were calculated using 4 parameter non-linear logistical curve fit.

[2] = system: SDMA signal (PRMT5 inhibition) in HCT116 MTAP-deleted cells; test: Symmetric di-methyl arginine image-based high content screen assay (SDMA assay), HCT116 MTAP-deleted; assay type: cell-based; settings: SDMA assay; for EC50: Homo sapiens, HCT-116, 72 h, 3 days of treatment, cell line not given, taken as HCT116 MTAP-deleted, read-out: EC50 (SDMA assay)
Description: Symmetric di-methyl arginine image-based high content screen assay (SDMA assay) was performed in HCT116 WT and HCT116 MTAP-deleted cell lines to measure Symmetric Di-methyl Arginine (SDMA) signal reduction after selective PRMT5 inhibition in the MTAP-deleted cells.
Briefly, the same compound plates were generated as mentioned in the previous section of Cell viability assay on Day −1.
On Day 3, the cells were fixed by adding 45 μl of 8% neutralized formalin solution to each well using EL460 liquid dispenser 5 μl cassette and the cells were incubated for 30 minutes at room temperature. The formalin solution was washed off with […] phosphate buffered saline (dPBS), the 0.1% Triton X-100 solution in dPBS was used to permeabilize the cells for 15 minutes at room temperature. The triton solution was aspirated, 50 μl of Odyssey Blocking buffer+0.05% Tween20 was added and the plate was incubated at room temperature for 30 minutes.
The blocking solution was removed, a 20 μl of SDMA antibody (Cell Signaling Technology, Cat no. 13222) diluted 1:500 in Odyssey Blocking buffer+0.05% Tween20 was added and the plate was incubated at 4° C. overnight. Next day, the primary SDME antibody solution was washed from each well three times with 0.05% Tween20 in dPBS (PBST).
A 30 μl of the secondary antibody, a Goat anti-Rabbit Alexa Fluor Plus 488 (Invitrogen, Cat no. PIA32731) was diluted 1:500 in Odyssey Blocking buffer+0.05% Tween20 and the plate was incubated for 1.5 hours in dark at room temperature. The secondary antibody solution was removed, 30 μl of 5 mg/ml DAPI solution diluted 1:2000 in dPBS was added and the plate was incubated for 30 minutes in dark at room temperature. The DAPI solution was aspirated and the wells were washed six times with dPBS.
The SDMA signal and DAPI signal per cell were counted using a Cellomics CX7 LZR instrument reading under 488 and 405 nm laser, respectively. The SDMA signal was quantified by mean average intensity per cell from Alexa Fluor Plus 488 after the cell was defined with DAPI.

[3] = taken as HCT116 WT versus MTAP-deleted
[4] = taken as HCT116 WT vs MTAP-deleted

CC(=O)N(C)N(Cc1nc2ccc(F)cc2s1)C(=O)c1ccc2nc(N)c3cnn(C)c3c2c1 [Example 86, N′-Acetyl-4-amino-N-[(6-fluoro-1,3-benzothiazol-2-yl)methyl]-N′, 1-dimethyl-pyrazolo[4,3-c]quinoline-8-carbohydrazide]
CC50 [1]: < 100 nM | EC50 [2]: < 1 nM | EC50 selectivity (SDMA assay) [2, 3]: 92

CN(C(=O)C1(F)CC1)N(Cc1ccc(C(F)(F)F)nn1)C(=O)c1cc2c(cc1F)nc(N)c1cnn(C)c12 [Example 194, 4-amino-7-fluoro-N′-(1-fluorocyclopropanecarbonyl)-N′, 1-dimethyl-N-[[6-(trifluoromethyl)pyridazin-3-yl]methyl]pyrazolo[4,3-c]quinoline-8-carbohydrazide]
CC50 [1]: < 100 nM | EC50 [2]: < 1 nM | EC50 selectivity (SDMA assay) [2, 3]: 68

[2H]C([2H])([2H])N(C(=O)C1CC1)N(Cc1ccc(C(F)(F)F)cn1)C(=O)c1ccc2nc(N)c3cnn(C)c3c2c1 [Example 325, 4-amino-N′-(cyclopropanecarbonyl)-1-methyl-N′-(methyl-d3)-N-((5-(trifluoromethyl)pyridin-2-yl)methyl)-1H-pyrazolo[4,3-c]quinoline-8-carbohydrazide]
CC50 [1]: < 100 nM | EC50 [2]: < 1 nM | EC50 selectivity (SDMA assay) [2, 3]: 103

Cn1ncc2c(N)nc3ccc(C(=O)N(Cc4ccc(C(F)(F)F)cn4)N4CC5(COC5)OC4=O)cc3c21 [Example 191, 4-amino-1-methyl-N-(6-oxo-2,5-dioxa-7-azaspiro[3.4]octan-7-yl)-N-[[5-(trifluoromethyl)-2-pyridyl]methyl]pyrazolo[4,3-c]quinoline-8-carboxamide]
CC50 [1]: 100 to 1000 nM | EC50 [2]: > 5 nM | EC50 selectivity (SDMA assay) [2, 3]: 103

Nc1nc2ccc(C(=O)N(Cc3ccc(C(F)(F)F)cn3)N3CCCCC3=O)cc2c2c1COC2 [Example 30, 4-amino-N-(2-oxo-1-piperidyl)-N-[[5-(trifluoromethyl)-2-pyridyl]methyl]-1,3-dihydrofuro[3,4-c]quinoline-8-carboxamide]
CC50 [1]: < 100 nM | EC50 [2]: < 1 nM | EC50 selectivity (SDMA assay) [2, 3]: 101

CN(c1ncccn1)N(Cc1ccc(C(F)(F)F)cn1)C(=O)c1ccc2nc(N)c3ccccc3c2c1 [Example 24, 6-amino-N′-methyl-N′-(pyrimidin-2-yl)-N-((5-(trifluoromethyl)pyridin-2-yl)methyl)phenanthridine-2-carbohydrazide]
CC50 [1]: < 100 nM | EC50 [2]: < 1 nM | EC50 selectivity (SDMA assay) [2, 3]: 87

CC(=O)N(C)N(Cc1nc2cc(Cl)ccc2n1C)C(=O)c1cc2c(cc1F)nc(N)c1cnn(C)c12 [Example 210, N′-acetyl-4-amino-N-[(5-chloro-1-methyl-benzimidazol-2-yl)methyl]-7-fluoro-N′,1-dimethyl-pyrazolo[4,3-c]quinoline-8-carbohydrazide]
CC50 [1]: < 100 nM | EC50 [2]: 1 to 5 nM | EC50 selectivity (SDMA assay) [2, 3]: 59

CC(=O)N(C)N(Cc1cnc(-c2ccccc2)n1C)C(=O)c1cc2c(cc1F)nc(N)c1cnn(C)c12 [Example 421, N′-acetyl-4-amino-7-fluoro-N′,1-dimethyl-N-((1-methyl-2-phenyl-1H-imidazol-5-yl)methyl)-1H-pyrazolo[4,3-c]quinoline-8-carbohydrazide]
CC50 [1]: < 100 nM | EC50 [2]: 1 to 5 nM | EC50 selectivity (SDMA assay) [2, 4]: 73

CC(=O)N(C)N(Cc1nc2cc(C(F)(F)F)ccc2n1C)C(=O)c1ccc2nc(N)c3cnn(C)c3c2c1 [Example 423, N′-acetyl-4-amino-N′,1-dimethyl-N-((1-methyl-5-(trifluoromethyl)-1H-benzo[d]imidazol-2-yl)methyl)-1H-pyrazolo[4,3-c]quinoline-8-carbohydrazide]
CC50 [1]: < 100 nM | EC50 [2]: 1 to 5 nM | EC50 selectivity (SDMA assay) [2, 4]: 149

Cn1ncc2c(N)nc3ccc(C(=O)N(Cc4ccc(C(F)(F)F)cn4)N4CCN(CC(F)(F)F)C4=O)cc3c21 [Example 4, 4-amino-1-methyl-N-(2-oxo-3-(2,2,2-trifluoroethyl)imidazolidin-1-yl)-N-((5-(trifluoromethyl)pyridin-2-yl)methyl)-1H-pyrazolo [4,3-c]quinoline-8-carboxamide]
CC50 [1]: < 100 nM | EC50 [2]: 1 to 5 nM | EC50 selectivity (SDMA assay) [2, 3]: 327

Cn1ncc2c(N)nc3ccc(C(=O)N(Cc4ccc(C(F)(F)F)cc4)N4CCCOC4=O)cc3c21 [Example 3, 4-amino-1-methyl-N-(2-oxo-1,3-oxazinan-3-yl)-N-(4-(trifluoromethyl)benzyl)-1H-pyrazolo[4,3-c]quinoline-8-carboxamide]
CC50 [1]: < 100 nM | EC50 [2]: < 1 nM | EC50 selectivity (SDMA assay) [2, 3]: 123

CC(=O)N(C)N(Cc1ccc(C(F)(F)F)nn1)C(=O)c1ccc2nc(N)c3cnn(C)c3c2c1 [Example 61, N′-acetyl-4-amino-N′,1-dimethyl-N-((6-(trifluoromethyl)pyridazin-3-yl)methyl)-1H-pyrazolo[4,3-c]quinoline-8-carbohydrazide]
CC50 [1]: 100 to 1000 nM | EC50 [2]: 1 to 5 nM | EC50 selectivity (SDMA assay) [2, 3]: 124

CC(=O)NN(Cc1nc2cc(C(F)(F)F)ccc2s1)C(=O)c1cc2c(cc1F)nc(N)c1cnn(C)c12 [Example 216, N′-acetyl-4-amino-7-fluoro-1-methyl-N-[[5-(trifluoromethyl)-1,3-benzothiazol-2-yl]methyl]pyrazolo[4,3-c]quinoline-8-carbohydrazide]
CC50 [1]: < 100 nM | EC50 [2]: < 1 nM | EC50 selectivity (SDMA assay) [2, 3]: 54

Cn1ncc2c(N)nc3ccc(C(=O)N(Cc4ccccn4)N4CCCC4=O)cc3c21 [Example 54, 4-amino-1-methyl-N-(2-oxopyrrolidin-1-yl)-N-(pyridin-2-ylmethyl)-1H-pyrazolo[4,3-c]quinoline-8-carboxamide]
CC50 [1]: 100 to 1000 nM | EC50 [2]: > 5 nM | EC50 selectivity (SDMA assay) [2, 3]: 339

[2H]C([2H])([2H])n1ncc2c(N)nc3ccc(C(=O)N(Cc4ccc(C(F)(F)F)cc4F)N(C)C(C)=O)cc3c21 [Example 270, N′-acetyl-4-amino-N-(2-fluoro-4-(trifluoromethyl)benzyl)-N′-methyl-1-(methyl-d3)-1H-pyrazolo[4,3-c]quinoline-8-carbohydrazide]
CC50 [1]: < 100 nM | EC50 [2]: < 1 nM | EC50 selectivity (SDMA assay) [2, 3]: 129

CC(=O)N1CCN(N(Cc2ccc(C(F)(F)F)cn2)C(=O)c2ccc3nc(N)c4cnn(C)c4c3c2)CC1 [Example 384, N-(4-acetylpiperazin-1-yl)-4-amino-1-methyl-N-[[5-(trifluoromethyl)-2-pyridyl]methyl]pyrazolo[4,3-c]quinoline-8-carboxamide]
CC50 [1]: 100 to 1000 nM | EC50 [2]: 1 to 5 nM | EC50 selectivity (SDMA assay) [2, 3]: 283

CC(=O)N(C)N(Cc1nc2cccc(Cl)c2n1C)C(=O)c1ccc2nc(N)c3cnn(C)c3c2c1 [Example 438, N′-acetyl-4-amino-N-((7-chloro-1-methyl-1H-benzo[d]imidazol-2-yl)methyl)-N′,1-dimethyl-1H-pyrazolo[4,3-c]quinoline-8-carbohydrazide]
CC50 [1]: < 100 nM | EC50 [2]: < 1 nM | EC50 selectivity (SDMA assay) [2, 4]: 141

CN(c1ncccn1)N(Cc1ccc(C(F)(F)F)cn1)C(=O)c1ccc2nc(N)c3cnn(C)c3c2c1 [Example 23, 4-amino-N′, 1-dimethyl-N′-(pyrimidin-2-yl)-N-((5-(trifluoromethyl)pyridin-2-yl)methyl)-1H-pyrazolo[4,3-c]quinoline-8-carbohydrazide]
CC50 [1]: < 100 nM | EC50 [2]: < 1 nM | EC50 selectivity (SDMA assay) [2, 3]: 18

CC(=O)N(C)N(Cc1cc2c(C(F)(F)F)cccc2s1)C(=O)c1ccc2nc(N)c3cnn(C)c3c2c1 [Example 418, N′-acetyl-4-amino-N′,1-dimethyl-N-((4-(trifluoromethyl)benzo[b]thiophen-2-yl)methyl)-1H-pyrazolo[4,3-c]quinoline-8-carbohydrazide]
CC50 [1]: < 100 nM | EC50 [2]: 1 to 5 nM | EC50 selectivity (SDMA assay) [2, 4]: 114

CC(=O)N(C)N(Cc1ccc(C#CC2(C(F)F)CC2)cc1F)C(=O)c1ccc2nc(N)c3cnn(C)c3c2c1 [Example 177, N′-acetyl-4-amino-N-(4-((1-(difluoromethyl)cyclopropyl)ethynyl)-2-fluorobenzyl)-N′,1-dimethyl-1H-pyrazolo[4,3-c]quinoline-8-carbohydrazide]
CC50 [1]: < 100 nM | EC50 [2]: 1 to 5 nM | EC50 selectivity (SDMA assay) [2, 3]: 36

C[C@@H]1CN(N(Cc2ccc(C(F)(F)F)cn2)C(=O)c2ccc3nc(N)c4cnn(C)c4c3c2)C[C@H](C)O1 [Example 310, 4-amino-N-((2S,6R)-2,6-dimethylmorpholino)-1-methyl-N-((5-(trifluoromethyl)pyridin-2-yl)methyl)-1H-pyrazolo[4,3-c]quinoline-8-carboxamide]
CC50 [1]: < 100 nM | EC50 [2]: < 1 nM | EC50 selectivity (SDMA assay) [2, 3]: 132

Source: US20240254118A1, “PRMT5 INHIBITORS AND USES THEREOF” (Gilead Sciences, Inc., priority 2022, published 2024)
